From ChEMBL document CHEMBL4414547, “Discovery of a novel 2,5-dihydroxycinnamic acid-based 5-lipoxygenase inhibitor that induces apoptosis and may impair autophagic flux in RCC4 renal cancer cells” (Eur J Med Chem, 2019)
The source made the active and inactive calls. No cut-off for these calls is given here.

Assays:
[1] = target: T1, Polyunsaturated fatty acid 5-lipoxygenase (Homo sapiens) (UniProt P09917); test: (§1) Inhibition of human 5-LO transfected in HEK293 cells coexpressing FLAP assessed as reduction in leukotriene formation at 1 uM using arachidonic acid as substrate preincubated for 5 mins followed by calcium ionophore A23187/arachidonic acid addition and measured after 15 mins by RP-HPLC analysis; assay type: cell-based
T1 sequence (whole entry): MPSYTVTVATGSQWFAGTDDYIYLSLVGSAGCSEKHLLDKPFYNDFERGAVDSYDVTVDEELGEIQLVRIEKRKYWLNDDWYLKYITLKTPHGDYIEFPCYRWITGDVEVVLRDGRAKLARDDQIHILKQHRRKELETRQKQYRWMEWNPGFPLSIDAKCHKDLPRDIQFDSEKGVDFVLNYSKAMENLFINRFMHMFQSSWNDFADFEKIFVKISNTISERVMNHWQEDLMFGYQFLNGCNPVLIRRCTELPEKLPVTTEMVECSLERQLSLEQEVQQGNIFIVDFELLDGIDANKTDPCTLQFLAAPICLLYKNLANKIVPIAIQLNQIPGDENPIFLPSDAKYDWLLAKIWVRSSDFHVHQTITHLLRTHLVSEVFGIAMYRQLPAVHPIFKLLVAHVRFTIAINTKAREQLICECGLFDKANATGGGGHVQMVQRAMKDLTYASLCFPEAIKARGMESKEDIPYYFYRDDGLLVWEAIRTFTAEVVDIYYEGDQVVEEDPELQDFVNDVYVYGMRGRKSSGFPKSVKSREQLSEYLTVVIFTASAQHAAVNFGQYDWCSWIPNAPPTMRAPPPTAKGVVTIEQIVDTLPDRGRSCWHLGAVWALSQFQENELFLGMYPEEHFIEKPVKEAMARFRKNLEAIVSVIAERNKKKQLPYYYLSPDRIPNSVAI

[2] = Antioxidant activity assessed as DPPH radical scavenging activity incubated for 30 mins under dark condition; assay type: functional
[3] = target: T1, Polyunsaturated fatty acid 5-lipoxygenase (Homo sapiens); test: Inhibition of 5-LO in human PMNL cells assessed as reduction in leukotriene formation at 1 uM preincubated for 5 mins followed by thapsigargin stimulation measured after 15 mins by RP-HPLC analysis relative to control; assay type: cell-based
[4] = target: T1, Polyunsaturated fatty acid 5-lipoxygenase (Homo sapiens); test: as §1, with “as” for “as reduction in”, “analysis relative to control” for “analysis”; assay type: cell-based; set-up: scale not given: the % may be the effect or the level left
[5] = target: T2, Polyunsaturated fatty acid 5-lipoxygenase (Homo sapiens, UniProt P09917); test: (§2) Inhibition of 5-LO in human PMNL cells assessed as reduction in leukotriene formation preincubated for 5 mins followed by thapsigargin stimulation measured after 15 mins by RP-HPLC analysis; assay type: cell-based
T2 sequence (P09917 whole entry): T1 sequence (whole entry)

RCC4/VHL [6] = test: Cytotoxicity against VHL-positive human RCC4/VHL cells assessed as reduction in cell viability incubated for 4 days by XTT assay; assay type: functional, cell-based; conditions: for IC50: 96 h
786-0 [7] = test: Cytotoxicity against VHL-deficient human 786-0 cells assessed as reduction in cell viability incubated for 4 days by XTT assay; assay type: functional, cell-based; conditions: 786-0, 96 h
RCC4 [8] = test: Cytotoxicity against VHL-deficient human RCC4 cells assessed as reduction in cell viability incubated for 4 days by XTT assay; assay type: functional, cell-based; conditions: for IC50: RCC4, 96 h
[9] = target: T1, Polyunsaturated fatty acid 5-lipoxygenase (Homo sapiens); test: Potency index, ratio of CAPE IC50 to compound IC50 for inhibition of 5-LO in human PMNL cells assessed as reduction in leukotriene formation preincubated for 5 mins followed by thapsigargin stimulation measured after 15 mins by RP-HPLC analysis; assay type: cell-based
[10] = Cytotoxicity against VHL-positive human RCC10 cells assessed as reduction in cell viability incubated for 4 days by XTT assay; assay type: functional, cell-based; conditions: 96 h
786-0 [11] = test: Cytotoxicity against VHL-positive human 786-0 cells assessed as reduction in cell viability incubated for 4 days by XTT assay; assay type: functional, cell-based; conditions: 786-0, 96 h
[12] = target: T1, Polyunsaturated fatty acid 5-lipoxygenase (Homo sapiens); test: Potency index, ratio of Zileuton IC50 to compound IC50 for inhibition of 5-LO in human PMNL cells assessed as reduction in leukotriene formation preincubated for 5 mins followed by thapsigargin stimulation measured after 15 mins by RP-HPLC analysis; assay type: cell-based
[13] = Cytotoxicity against VHL-deficient human RCC10 cells assessed as reduction in cell viability incubated for 4 days by XTT assay; assay type: functional, cell-based; conditions: 96 h
RCC4/VHL [14] = test: Induction of autophagy in human RCC4/VHL cells assessed as increase in LC3B1 expression incubated for 24 hrs by Western blot analysis; assay type: functional, cell-based
[15] = target: T1, Polyunsaturated fatty acid 5-lipoxygenase (Homo sapiens); test: as §2; assay type: cell-based
RCC4/VHL [16] = test: Induction of autophagy in human RCC4/VHL cells assessed as increase in conversion of LC3B1 to LC3B2 expression at 2.5 to 10 uM incubated for 24 hrs by Western blot analysis; assay type: functional, cell-based
RCC4/VHL [17] = test: Induction of DNA damage in human RCC4/VHL cells assessed as induction of p53 expression at 2.5 to 10 uM incubated for 24 hrs by Western blot analysis; assay type: functional, cell-based
RCC4 [18] = test: Induction of DNA damage in VHL-deficient human RCC4 cells assessed as induction of p53 expression at 2.5 to 10 uM incubated for 24 hrs by Western blot analysis; assay type: functional, cell-based
RCC4 [19] = test: Induction of autophagy in VHL-deficient human RCC4 cells assessed as increase in conversion of LC3B1 to LC3B2 expression at 2.5 to 10 uM incubated for 24 hrs by Western blot analysis; assay type: functional, cell-based
RCC4/VHL [20] = test: Induction of cellular phenotype changes in human RCC4/VHL cells at 2.5 to 10 uM incubated for 24 hrs by inverted microscopic analysis; assay type: functional, cell-based
RCC4/VHL [21] = test: Induction of autophagy in human RCC4/VHL cells assessed as increase in LC3B2 expression incubated for 24 hrs by Western blot analysis; assay type: functional, cell-based
[22] = Selectivity ratio of IC50 for VHL-positive human RCC4/VHL cells to IC50 for VHL-deficient human RCC4 cells; assay type: functional
RCC4 [23] = test: Induction of autophagy in VHL-deficient human RCC4 cells assessed as increase in LC3B2 expression incubated for 24 hrs by Western blot analysis; assay type: functional, cell-based
RCC4 [24] = test: Induction of apoptosis in VHL-deficient human RCC4 cells assessed as cleavage of pro-caspase 3 after 24 hrs by Western blot analysis; assay type: functional, cell-based
RCC4 [25] = test: Inhibition of autophagic flux in VHL-deficient human RCC4 cells assessed as increase in p62 expression at 2.5 to 10 uM incubated for 24 hrs by Western blot analysis; assay type: functional, cell-based
RCC4/VHL [26] = test: Inhibition of autophagic flux in human RCC4/VHL cells assessed as increase in p62 expression at 2.5 to 10 uM incubated for 24 hrs by Western blot analysis; assay type: functional, cell-based
RCC4 [27] = test: Induction of autophagy in VHL-deficient human RCC4 cells assessed as increase in LC3B1 expression incubated for 24 hrs by Western blot analysis; assay type: functional, cell-based
RCC4 [28] = test: Induction of cellular phenotype changes in VHL-deficient human RCC4 cells at 2.5 to 10 uM incubated for 24 hrs by inverted microscopic analysis; assay type: functional, cell-based

In the case of `O=C(/C=C/c1ccc(O)cc1O)OCCCc1ccccc1`, the inhibition [1] is reported as “inactive”.

In the case of `CC(c1cc2ccccc2s1)N(O)C(N)=O` (stereo not given) [ZILEUTON], the inhibition [1] is reported as “Active”, the IC50 [2] is reported as > 100 µM and the inhibition [3] is reported as “Active”.

With `O=C(/C=C/c1ccc(O)cc1O)OCCc1ccccc1` the Activity [4] was 100%.

With `O=C(/C=C/c1cccc(O)c1O)OCCc1ccccc1` the IC50 [5] was 0.89 µM, the inhibition [1] was “Active” and the inhibition [3] was > 50%.

`O=C(/C=C/c1cc(O)ccc1O)CCc1ccccc1` gave an IC50 (RCC4/VHL [6]) of 12.3 µM, an IC50 (786-0 [7]) of 20.5 µM and an IC50 [5] of 0.53 µM. For the same compound, the inhibition [1] was “Active”, the IC50 [2] was 15 µM and the inhibition [3] was > 50%. The IC50 (RCC4 [8]) was 9.9 µM, the Ratio IC50 [9] was 1.8 and the IC50 [10] was 5.1 µM. For the same compound, the IC50 (786-0 [11]) was 19 µM, the Ratio IC50 [12] was 4 and the IC50 [13] was 9.2 µM.

For `O=C(/C=C/c1cc(O)cc(O)c1)OCCc1ccccc1`, the Activity [4] was 100%.

In the case of `O=C(/C=C/c1cc(O)ccc1O)OCCc1ccccc1`, the Activity (RCC4/VHL [14]) is reported as “Dose-dependent effect”, the Activity (RCC4/VHL [6]) is reported as “Dose-dependent effect” and the IC50 (RCC4/VHL [6]) is reported as 99.6 µM. For the same compound, the IC50 (786-0 [7]) was 34.8 µM, the IC50 [5] was 0.33 µM and the inhibition [15] was “Dose-dependent effect”. For the same compound, the Activity (RCC4/VHL [16]) was “Active”, the Activity (RCC4/VHL [17]) was “inactive” and the Activity (RCC4 [18]) was “inactive”. For the same compound, the Activity (RCC4 [19]) was “Active”, the IC50 [2] was 16.4 µM and the Activity (RCC4/VHL [20]) was “inactive”. The inhibition [3] was > 50%, the Activity (RCC4/VHL [21]) was “Dose-dependent effect” and the “Ratio IC50” value [22] was 12. The Activity (RCC4 [23]) was “Dose-dependent effect”, the Activity (RCC4 [8]) was “Dose-dependent effect” and the IC50 (RCC4 [8]) was 8 µM. For the same compound, the Activity (RCC4 [24]) was “Dose-dependent effect”, the Activity [4] was 25% and the Ratio IC50 [9] was 3. The inhibition (RCC4 [25]) was “Active”, the IC50 [10] was 0.96 µM and the IC50 (786-0 [11]) was > 100 µM. The inhibition (RCC4/VHL [26]) was “Active”, the Activity (RCC4 [27]) was “Dose-dependent effect” and the Activity (RCC4 [28]) was “inactive”. It also gave a Ratio IC50 [12] of 7 and an IC50 [13] of 5.04 µM.
